Patent US10828315B2 (Madrigal Pharmaceuticals, Inc., priority 2013, dated 2020)
pIC50: −log10 of the molar value. Structures can show the parent of a compound that is named as a salt.

system: HER2; assay: HER2 degradation assay with BT-474 cell line (Example 12, FACS); assay type: cell-based, human; conditions: not given
Excerpt: HER2 has emerged as a key target for anticancer drugs due to its intrinsic involvement in the phosphatidylinositol-3-kinase-Akt/protein kinase B (PI3K-Akt) and the mitogen-activated protein kinase (MAPK) pathways, both of which suppress apoptosis and promote tumor cell survival, gene transcription, angiogenesis, cellular proliferation, migration, mitosis, and differentiation. The degradation of HER2 is a measure of efficacy of anticancer therapeutics that target Hsp90. Accordingly, the SDC-TRAP molecules of the invention that comprise a binding moiety that binds Hsp90 were tested in the following HER2 degradation assay.
BT-474 cells (human breast cancer cell line ATCC HTB-20) were obtained from ATCC and seeded into 12-well tissue culture plates at 0.2×10^6/1.8 mL/well. […] Each test compound was titrated in 4-fold dilutions from 5 μM to 78 nM with DMSO and 200 μL of the titration was added to each well of the cell plate. The DMSO final concentration was 0.2%. Cells were incubated overnight at 37° C. in 5% CO2.
Media was decanted from the plate, cells were washed 1× in PBS. 400 μL trypsin (EDTA) per well was added, and the cells were incubated for 2 to 3 minutes. Cells were collected into FACS tubes containing 1 ml culture medium to neutralize the trypsin and were centrifuged for 5 minutes at 1200 rpm. Supernatant was decanted and the cells were resuspended in 5 μL FITC (anti HER2/nu)/200 μL staining buffer (1×PBS+1% FBS+0.05% Sodium Azide)/tube. Controls were 5 μL IgG isotype control and staining buffer only. Tubes were incubated for 30 minutes in the dark at room temperature. 1 mL staining buffer was added to each tube and the tubes were centrifuged for 6 minutes at 1200 rpm. The supernatant was decanted and 300 μL staining buffer was added to each tube, which was store at 4° C. fpr FACS (cytometer) analysis. The cytometer readout was normalized and the potency of each compound is evaluated with IC50 calculated with XLfit™ software.

| Structure (SMILES) | pIC50 |
| --- | --- |
| CCc1c2c(nc3ccc(O)cc13)-c1cc3c(c(=O)n1C2)COC(=O)C3(CC)OC(=O)C1CCN(C(=O)Cc2ccc(-n3c(O)nnc3-c3cc(C(C)C)c(O)cc3O)cc2)CC1 (stereo not drawn) [SDC-TRAP-0097, 4,11-diethyl-9-hydroxy-3,14-dioxo-3,4,12,14-tetrahydro-1H-pyrano[3′,4′:6,7]indolizino[1,2-b]quinolin-4-yl 1-(2-(4-(3-(2,4-dihydroxy-5-isopropylphenyl)-5-hydroxy-4H-1,2,4-triazol-4-yl)phenyl)acetyl)piperidine-4-carboxylate] | < 5.30 |
| CCc1c2c(nc3ccc(O)cc13)-c1cc3c(c(=O)n1C2)COC(=O)C3(CC)OC(=O)N1CCN(Cc2cc3cc(-n4c(O)nnc4-c4cc(C(C)C)c(O)cc4O)ccc3n2C)CC1 (stereo not drawn) [SDC-TRAP-0075, 4,11-diethyl-9-hydroxy-3,14-dioxo-3,4,12,14-tetrahydro-1H-pyrano[3′,4′:6,7]indolizino[1,2-b]quinolin-4-yl 4-((5-(3-(2,4-dihydroxy-5-isopropylphenyl)-5-hydroxy-4H-1,2,4-triazol-4-yl)-1-methyl-1H-indol-2-yl)methyl)piperazine-1-carboxylate] | 6.02 |
| CCc1c2c(nc3ccc(OC(=O)N4Cc5ccc(-n6c(O)nnc6-c6cc(C(C)C)c(O)cc6O)cc5C4)cc13)-c1cc3c(c(=O)n1C2)COC(=O)C3(O)CC (stereo not drawn) [SDC-TRAP-0083, 4,11-diethyl-4-hydroxy-3,14-dioxo-3,4,12,14-tetrahydro-1H-pyrano[3′,4′:6,7]indolizino[1,2-b]quinolin-9-yl 5-(3-(2,4-dihydroxy-5-isopropylphenyl)-5-hydroxy-4H-1,2,4-triazol-4-yl)isoindoline-2-carboxylate] | 5.84 |
| CCc1c2c(nc3ccc(O)cc13)-c1cc3c(c(=O)n1C2)COC(=O)[C@@]3(CC)OC(=O)N1CCC(Oc2ccc(-n3c(O)nnc3-c3cc(C(C)C)c(O)cc3O)cc2)CC1 [SDC-TRAP-0012, (S)-4,11-diethyl-9-hydroxy-3,14-dioxo-3,4,12,14-tetrahydro-1H-pyrano[13′,4′:6,7]indolizino[1,2-b]quinolin-4-yl-4-(4-(3-(2,4-dihydroxy-5-isopropylphenyl)-5-hydroxy-4H-1,2,4-triazol-4-yl)phenoxy)piperidine-1-carboxylate hydrochloride] | < 5.30 |
| CCNC(=O)c1nnc(-c2cc(C(C)C)c(O)cc2O)n1-c1ccc(OC2CCN(C(=O)[C@@H]3CCCN3C(=O)O[C@]3(CC)C(=O)OCc4c3cc3n(c4=O)Cc4c-3nc3ccc(O)cc3c4CC)CC2)cc1 [SDC-TRAP-0214, (S)—(S)-4,11-diethyl-9-hydroxy-3,14-dioxo-3,4,12,14-tetrahydro-1H-pyrano[3′,4′:6,7]indolizino[1,2-b]quinolin-4-yl 2-(4-(4-(3-(2,4-dihydroxy-5-isopropylphenyl)-5-(ethylcarbamoyl)-4H-1,2,4-triazol-4-yl)phenoxy)piperidine-1-carbonyl)pyrrolidine-1-carboxylate] | < 5.30 |
| CCc1c2c(nc3ccc(O)cc13)-c1cc3c(c(=O)n1C2)COC(=O)C3(CC)OC(=O)N1CCN(c2ccc(-n3c(O)nnc3-c3cc(C(C)C)c(O)cc3O)cc2)CC1 (stereo not drawn) [SDC-TRAP-0081, 4,11-diethyl-9-hydroxy-3,14-dioxo-3,4,12,14-tetrahydro-1H-pyrano[3′,4′:6,7]indolizino[1,2-b]quinolin-4-yl-4-(4-(3-(2,4-dihydroxy-5-isopropylphenyl)-5-hydroxy-4H-1,2,4-triazol-4-yl)phenyl)piperazine-1-carboxylate] | 6.21 |
| CCc1c2c(nc3ccc(OC(=O)NCCOCCn4ccc5cc(-n6c(O)nnc6-c6cc(C(C)C)c(O)cc6O)ccc54)cc13)-c1cc3c(c(=O)n1C2)COC(=O)C3(O)CC (stereo not drawn) [SDC-TRAP-0016, 4,11-diethyl-4-hydroxy-3,14-dioxo-3,4,12,14-tetrahydro-1H-pyrano[3′,4′:6,7]indolizino[1,2-b]quinolin-9-yl (2-(2-(5-(3-(2,4-dihydroxy-5-isopropylphenyl)-5-hydroxy-4H-1,2,4-triazol-4-yl)-1H-indol-1-yl)ethoxy)ethyl)carbamate] | < 5.30 |
| CCc1c2c(nc3ccc(O)cc13)-c1cc3c(c(=O)n1C2)COC(=O)[C@@]3(CC)OC(=O)N1CCC(COc2ccc(-n3c(O)nnc3-c3cc(C(C)C)c(O)cc3O)cc2)CC1 [SDC-TRAP-0014, (S)-4,11-diethyl-9-hydroxy-3,14-dioxo-3,4,12,14-tetrahydro-1H-pyrano[3,4:6,7]indolizino[1,2-b]quinolin-4-yl 4-((4-(3-(2,4-dihydroxy-5-isopropylphenyl)-5-hydroxy-4H-1,2,4-triazol-4-yl)phenoxy)methyl)piperidine-1-carboxylate] | < 5.30 |

system: not listed separately; assay: Mouse plasma stability protocol, up to 1 h (Examples 16-18); conditions: % Remaining of parent after 1 h incubation in mouse plasma at 37° C. (10 μM)

| Structure (SMILES) | % Remaining (1 h) [%] |
| --- | --- |
| CCNC(=O)c1nnc(-c2cc(C(C)C)c(O)cc2O)n1-c1ccc(S(=O)(=O)N2CCC(C(=O)N3CCN(C(=O)Oc4ccc5nc6c(c(CC)c5c4)Cn4c-6cc5c(c4=O)COC(=O)C5(O)CC)C(C)C3)CC2)cc1 (stereo not drawn) [SDC-TRAP-0396, 4,11-diethyl-4-hydroxy-3,14-dioxo-3,4,12,14-tetrahydro-1H-pyrano[3′,4:6,7]indolizino[1,2-b]quinolin-9-yl 4-(1-((4-(3-(2,4-dihydroxy-5-isopropylphenyl)-5-(ethylcarbamoyl)-4H-1,2,4-triazol-4-yl)phenyl)sulfonyl)piperidine-4-carbonyl)-2-methylpiperazine-1-carboxylate] | 71.6 |
| CCNC(=O)c1nnc(-c2cc(C(C)C)c(O)cc2O)n1-c1ccc2c(c1)CN(C(=O)Oc1ccc3nc4c(c(CC)c3c1)Cn1c-4cc3c(c1=O)COC(=O)C3(O)CC)C2 (stereo not drawn) [SDC-TRAP-0392, 4,11-diethyl-4-hydroxy-3,14-dioxo-3,4,12,14-tetrahydro-1H-pyrano[3′,4′:6,7]indolizino[1,2-b]quinolin-9-yl 5-(3-(2,4-dihydroxy-5-isopropylphenyl)-5-(ethylcarbamoyl)-4H-1,2,4-triazol-4-yl)isoindoline-2-carboxylate] | 44.7 |
| CCNC(=O)c1nnc(-c2cc(C(C)C)c(O)cc2O)n1-c1ccc(C(=O)N2CCN(c3cc(C)c(OC(=O)Nc4cccc5c4C(=O)N(C4CCC(=O)NC4=O)C5=O)c(C)c3)CC2)cc1 (stereo not drawn) [SDC-TRAP-0400, 4-(4-(4-(3-(2,4-dihydroxy-5-isopropylphenyl)-5-(ethylcarbamoyl)-4H-1,2,4-triazol-4-yl)benzoyl)piperazin-1-yl)-2,6-dimethylphenyl (2-(2,6-dioxopiperidin-3-yl)-1,3-dioxoisoindolin-4-yl)carbamate] | 70.4 |
| CCc1c2c(nc3ccc(OC(=O)N4CCC(S(=O)(=O)N5CCC(CCn6ccc7cc(-n8c(O)nnc8-c8cc(C(C)C)c(O)cc8O)ccc76)CC5)CC4)cc13)-c1cc3c(c(=O)n1C2)COC(=O)[C@]3(O)CC [SDC-TRAP-0336, (S)-4,11-diethyl-4-hydroxy-3,14-dioxo-3,4,12,14-tetrahydro-1H-pyrano[3′,4′:6,7]indolizino[1,2-b]quinolin-9-yl 4-((4-(2-(5-(3-(2,4-dihydroxy-5-isopropylphenyl)-5-hydroxy-4H-1,2,4-triazol-4-yl)-1H-indol-1-yl)ethyl)piperidin-1-yl)sulfonyl)piperidine-1-carboxylate] | 31.7 |
| CCc1c2c(nc3ccc(O)cc13)-c1cc3c(c(=O)n1C2)COC(=O)[C@@]3(CC)OC(=O)CN1CCC(CCc2ccc(-n3c(O)nnc3-c3cc(C(C)C)c(O)cc3O)cc2)CC1 [SDC-TRAP-0106, (S)-4,11-diethyl-9-hydroxy-3,14-dioxo-3,4,12,14-tetrahydro-1H-pyrano[3′,4′:6,7]indolizino[1,2-b]quinolin-4-yl 2-(4-(4-(3-(2,4-dihydroxy-5-isopropylphenyl)-5-hydroxy-4H-1,2,4-triazol-4-yl)phenethyl)piperidin-1-yl)acetate] | 114 |
| CCc1c2c(nc3ccc(OC(=O)N4CCN(S(=O)(=O)N5CCC(CCn6ccc7cc(-n8c(O)nnc8-c8cc(C(C)C)c(O)cc8O)ccc76)CC5)CC4)cc13)-c1cc3c(c(=O)n1C2)COC(=O)C3(O)CC (stereo not drawn) [SDC-TRAP-0361, 4,11-diethyl-4-hydroxy-3,14-dioxo-3,4,12,14-tetrahydro-1H-pyrano[3′,4′: 6,7]indolizino[1,2-b]quinolin-9-yl 4-((4-(2-(5-(3-(2,4-dihydroxy-5-isopropylphenyl)-5-hydroxy-4H-1,2,4-triazol-4-yl)-1H-indol-1-yl)ethyl)piperidin-1-yl)sulfonyl)piperazine-1-carboxylate] | 25.6 |
| CCc1c2c(nc3ccc(O)cc13)-c1cc3c(c(=O)n1C2)COC(=O)[C@@]3(CC)OC(=O)CN1CCC(CCn2ccc3cc(-n4c(O)nnc4-c4cc(C(C)C)c(O)cc4O)ccc32)CC1 [SDC-TRAP-0107, (S)-4,11-diethyl-9-hydroxy-3,14-dioxo-3,4,12,14-tetrahydro-1H-pyrano[3′,4′:6,7]indolizino[1,2-b]quinolin-4-yl 2-(4-(2-(5-(3-(2,4-dihydroxy-5-isopropylphenyl)-5-hydroxy-4H-1,2,4-triazol-4-yl)-1H-indol-1-yl)ethyl)piperidin-1-yl)acetate] | 111 |
